For assay [1], the system named is TNFα. The experiment in a line: cells. It counts as cell-based, human. The following applies: LPS-stimulated human monocytes, TNFα by TR-FRET, read-out: EC50 TNF. For orientation: TR-FRET usually uses a lanthanide donor and a delayed reading to cut background.
Procedure: IRAK4 Monocyte TNFα Cell Based Assay Procedure:
The cell suspension was then plated at a density of 5,000 cells/well onto black 384 well Greiner clear bottom plates. Plates were pre-spotted with test compounds and serially diluted in DMSO where 200 nL/well were delivered using the Echo 550 acoustic liquid dispenser (Labcyte®) for a final DMSO concentration of 0.5%. Plated cells were treated with compound for 1 hour at 37° C. Cells were then stimulated with 50 pg/ml of LPS (Sigma) excluding outside columns of plate used for unstimulated cell control wells. Cells were incubated for an additional 4 hours at 37° C. Cells were then spun out of the media and 5 μl of sample were taken and analyzed for total TNFα content using the TR-FRET Human TNFα detection system (CisBio). This system utilizes two labeled antibodies (cryptate and XL665) that bind to two different epitopes of the TNFα molecule and produce FRET signal proportional to the concentration of TNFα in the sample. Detection antibodies are mixed 50:50 and 5 μL were dispensed into each well. Plates were covered with clear seals and incubated at room temp overnight. […] Percent of control was calculated as follows: % Control=100×(RatioSample−Ratio0% stimulation)/(Ratio100% Stimulation−Ratio0% Stimulation) where unstimulated cells (0% stimulation) were the negative control and stimulated cells (100% stimulation) were used as the positive control.
Assay [2] deals with IRAK4 enzyme (Homo sapiens (Human), UniProt Q9NWZ3). The experiment in a line: biochemical. It is filed as biochemical. Conditions: IRAK4 enzyme, TR-FRET, 500 μM ATP.

Where two headings read alike, the source gives them in different places.

The EC50 is the concentration needed to bring the measured effect to its halfway point. What is called IC50 is the concentration that gives 50% inhibition.

IRAK4 enzyme, sequence (Q9NWZ3 whole entry): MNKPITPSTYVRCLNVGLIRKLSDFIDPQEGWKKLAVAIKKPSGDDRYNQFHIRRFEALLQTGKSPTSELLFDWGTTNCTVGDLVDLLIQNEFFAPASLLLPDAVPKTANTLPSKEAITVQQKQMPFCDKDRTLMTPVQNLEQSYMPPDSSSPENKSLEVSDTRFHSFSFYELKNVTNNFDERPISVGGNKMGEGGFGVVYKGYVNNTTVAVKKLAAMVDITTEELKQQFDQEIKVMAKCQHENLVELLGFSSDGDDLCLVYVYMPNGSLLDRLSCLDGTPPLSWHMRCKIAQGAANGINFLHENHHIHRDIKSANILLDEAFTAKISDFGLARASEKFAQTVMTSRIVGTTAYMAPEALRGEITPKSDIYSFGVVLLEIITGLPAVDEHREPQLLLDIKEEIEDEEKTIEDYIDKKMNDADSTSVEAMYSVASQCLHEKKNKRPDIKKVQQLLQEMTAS

Consider `CC(C)(O)[C@H](F)CNC(=O)c1cnc(-c2ccc3cc(C#N)cnn23)cc1NC1CC2(C1)CN(CC(F)(F)F)C2` [Example 898, (R)-6-(3-cyanopyrrolo[1,2-b]pyridazin-7-yl)-N-(2-fluoro-3-hydroxy-3-methylbutyl)-4-((2-(2,2,2-trifluoroethyl)-2-aza-spiro[3.3]heptan-6-yl)amino)nicotinamide], for which, in assay [1] (Homo sapiens, Monocyte), the EC50 was determined as 118 nM. In addition, the IC50 in assay [2] was under 1 nM.
For `CC(C)(O)[C@H](F)CNC(=O)c1cnc(-c2ccc3cc(C#N)cnn23)cc1NC[C@H]1CCNC1` [Example 899, 6-(3-cyanopyrrolo[1,2-b]pyridazin-7-yl)-N-((R)-2-fluoro-3-hydroxy-3-methylbutyl)-4-((((S)-pyrrolidin-3-yl)methyl)amino)nicotinamide], in assay [1] (Homo sapiens, Monocyte), the concentration giving a half-maximal response (EC50) is over 10000 nM. Also, the IC50 in assay [2] was determined as 5 nM.
With `COC(=O)N1CC[C@H](CNc2cc(-c3ccc4cc(C#N)cnn34)ncc2C(=O)NC[C@@H](F)C(C)(C)O)C1` [Example 900, (R)-methyl 3-(((2-(3-cyanopyrrolo[1,2-b]pyridazin-7-yl)-5-(((R)-2-fluoro-3-hydroxy-3-methylbutyl)carbamoyl)pyridin-4-yl)amino)methyl) pyrrolidine-1-carboxylate], the EC50 in assay [1] (Homo sapiens, Monocyte) is 134 nM. This compound yielded an IC50 in assay [2] of 2 nM.
For `CC(C)(O)[C@H](F)CNC(=O)c1cnc(-c2ccc3cc(C#N)cnn23)cc1NC[C@H]1CCN(CC(F)(F)F)C1` [Example 901, 6-(3-cyanopyrrolo[1,2-b]pyridazin-7-yl)-N-((R)-2-fluoro-3-hydroxy-3-methylbutyl)-4-((((R)-1-(2,2,2-trifluoroethyl)pyrrolidin-3-yl)methyl)amino)nicotinamide], in that order: 126 nM and 3 nM.
For `CC(C)(O)[C@H](F)CNC(=O)c1cnc(-c2ccc3cc(C#N)cnn23)cc1NC1CC2(CCNC2)C1` (stereo partly drawn) [Example 902, (R)-4-(6-azaspiro[3.4]octan-2-ylamino)-6-(3-cyanopyrrolo[1,2-b]pyridazin-7-yl)-N-(2-fluoro-3-hydroxy-3-methyl-butyl)nicotinamide], in that order: 1230 nM and 1 nM.
For `COC(=O)N1CCC2(CC(Nc3cc(-c4ccc5cc(C#N)cnn45)ncc3C(=O)NC[C@@H](F)C(C)(C)O)C2)C1` (stereo partly drawn) [Example 903, (R)-methyl 2-((2-(3-cyano-pyrrolo[1,2-b]pyridazin-7-yl)-5-((2-fluoro-3-hydroxy-3-methylbutyl)carbamoyl)pyridin-4-yl)amino)-6-azaspiro[3.4]octane-6-carboxylate], the EC50 in assay [1] (Homo sapiens, Monocyte) amounted to 79 nM. Further, inhibition in assay [2] was half-maximal at 1 nM (IC50).
Turning to `CC(C)(O)[C@H](F)CNC(=O)c1cnc(-c2ccc3cc(C#N)cnn23)cc1NC1CC2(CCN(CC(F)(F)F)C2)C1` (stereo partly drawn) [Example 904, (R)-6-(3-cyanopyrrolo[1,2-b]pyridazin-7-yl)-N-(2-fluoro-3-hydroxy-3-methylbutyl)-4-((6-(2,2,2-trifluoroethyl)-6-aza-spiro[3.4]octan-2-yl)amino)nicotinamide], in assay [1] (Homo sapiens, Monocyte), the EC50 came to 117 nM. For the same compound, in assay [2], it took 1 nM to reach half-maximal inhibition (IC50).
For `CC(C)(O)[C@H](F)CNC(=O)c1cnc(-c2ccc3cc(C#N)cnn23)cc1NCC1CNC1` [Example 905, (R)-4-((azetidin-3-yl-methyl)amino)-6-(3-cyanopyrrolo[1,2-b]pyridazin-7-yl)-N-(2-fluoro-3-hydroxy-3-methylbutyl)nicotinamide] the same measures were over 10000 nM and 15 nM.
For `COC(=O)N1CC(CNc2cc(-c3ccc4cc(C#N)cnn34)ncc2C(=O)NC[C@@H](F)C(C)(C)O)C1` [Example 906, (R)-methyl 3-(((2-(3-cyanopyrrolo[1,2-b]pyridazin-7-yl)-5-((2-fluoro-3-hydroxy-3-methylbutyl)carbamoyl)pyridin-4-yl)amino)methyl) azetidine-1-carboxylate], in that order: 186 nM and 10 nM.
For `CC(C)(O)[C@H](F)CNC(=O)c1cnc(-c2ccc3cc(C#N)cnn23)cc1NCC1CN(CC(F)(F)F)C1` [Example 907, (R)-6-(3-cyanopyrrolo[1,2-b]pyridazin-7-yl)-N-(2-fluoro-3-hydroxy-3-methylbutyl)-4-(((1-(2,2,2-trifluoroethyl)azetidin-3-yl)methyl)amino) nicotinamide] the same measures were 91 nM and 10 nM.
Turning to `CC(C)(O)[C@H](F)CNC(=O)c1cnc(-c2ccc3cc(C#N)cnn23)cc1NC1CC2(CCN2)C1` (stereo partly drawn) [Example 908, 4-(((4S,6r)-1-azaspiro[3.3]heptan-6-yl)amino)-6-(3-cyanopyrrolo[1,2-b]pyridazin-7-yl)-N-((R)-2-fluoro-3-hydroxy-3-methylbutyl)nicotinamide], in assay [1] (Homo sapiens, Monocyte), the EC50 amounted to 611 nM. For the same compound, in assay [2], it took 6 nM to reach half-maximal inhibition (IC50).
In the case of `COC(=O)N1CCC12CC(Nc1cc(-c3ccc4cc(C#N)cnn34)ncc1C(=O)NC[C@@H](F)C(C)(C)O)C2` (stereo partly drawn) [Example 909, (4S,6r)-methyl 6-((2-(3-cyanopyrrolo[1,2-b]pyridazin-7-yl)-5-(((R)-2-fluoro-3-hydroxy-3-methylbutyl)carbamoyl)pyridin-4-yl)amino)-1-azaspiro[3.3]heptane-1-carboxylate], in assay [1], the EC50 is 372 nM. In assay [2], this compound returned an IC50 of 15 nM.
As for `CC(C)(O)[C@H](F)CNC(=O)c1cnc(-c2ccc3cc(C#N)cnn23)cc1NC1CC2(CCN2CC(F)(F)F)C1` (stereo partly drawn) [Example 910, 6-(3-cyanopyrrolo[1,2-b]pyridazin-7-yl)-N-((R)-2-fluoro-3-hydroxy-3-methylbutyl)-4-(((4S,6r)-1-(2,2,2-trifluoroethyl)-1-azaspiro[3.3]heptan-6-yl)amino)nicotinamide], the EC50 in assay [1] was found to be 1210 nM. Further, 10 nM corresponded to half-maximal inhibition in assay [2] (IC50).
For `CC(C)(O)[C@H](F)CNC(=O)c1cnc(-c2ccc3cc(C#N)cnn23)cc1NC1CC2(CCN2)C1` (stereo partly drawn) [Example 911, 4-(((4R,6s)-1-azaspiro[3.3]heptan-6-yl)amino)-6-(3-cyanopyrrolo[1,2-b]pyridazin-7-yl)-N-((R)-2-fluoro-3-hydroxy-3-methylbutyl) nicotinamide] the same measures were 318 nM and 7 nM.
For `COC(=O)N1CCC12CC(Nc1cc(-c3ccc4cc(C#N)cnn34)ncc1C(=O)NC[C@@H](F)C(C)(C)O)C2` (stereo partly drawn) [Example 912, (4R,6s)-methyl 6-((2-(3-cyanopyrrolo[1,2-b]pyridazin-7-yl)-5-(((R)-2-fluoro-3-hydroxy-3-methylbutyl)carbamoyl)pyridin-4-yl)amino)-1-azaspiro[3.3]heptane-1-carboxylate], in assay [1], the EC50 stood at 176 nM. The compound further yielded an IC50 in assay [2] of 6 nM.
Regarding `CC(C)(O)[C@H](F)CNC(=O)c1cnc(-c2ccc3cc(C#N)cnn23)cc1NC1CC2(CCN2CC(F)(F)F)C1` (stereo partly drawn) [Example 913, 6-(3-cyanopyrrolo[1,2-b]pyridazin-7-yl)-N-((R)-2-fluoro-3-hydroxy-3-methylbutyl)-4-(((4R,6s)-1-(2,2,2-trifluoroethyl)-1-azaspiro[3.3]heptan-6-yl)amino)nicotinamide], the EC50 in assay [1] stood at 226 nM. In assay [2], this compound returned an IC50 of 3 nM.
Turning to `CC(C)(O)[C@H](F)CNC(=O)c1cnc(-c2ccc3cc(C#N)cnn23)cc1Nc1cnn([C@H]2CNC[C@H]2F)c1` [Example 914, 6-(3-cyanopyrrolo[1,2-b]pyridazin-7-yl)-N-((R)-2-fluoro-3-hydroxy-3-methylbutyl)-4-((1-((3S,4R)-4-fluoropyrrolidin-3-yl)-1H-pyrazol-4-yl)amino)nicotinamide], the EC50 in assay [1] (Homo sapiens, Monocyte) was found to be 13 nM. The IC50 in assay [2] was under 1 nM.
As for `COC[C@@H]1CCN1c1ccc(Nc2cc(-c3ccc4cc(C#N)cnn34)ncc2C(=O)NC[C@@H](F)C(C)(C)O)cn1` [Example 915, 6-(3-cyanopyrrolo[1,2-b]pyridazin-7-yl)-N-((R)-2-fluoro-3-hydroxy-3-methylbutyl)-4-((6-((S)-2-(methoxymethyl)azetidin-1-yl)pyridin-3-yl)amino) nicotinamide], in assay [1] (Homo sapiens, Monocyte), the EC50 amounted to 28 nM. It took 1 nM to reach half-maximal inhibition in assay [2] (IC50).
On to `CC(C)(O)[C@H](F)CNC(=O)c1cnc(-c2ccc3cc(C#N)cnn23)cc1NC[C@H]1COCCN1` [Example 916, 6-(3-cyanopyrrolo[1,2-b]pyridazin-7-yl)-N-((R)-2-fluoro-3-hydroxy-3-methylbutyl)-4-((((S)-morpholin-3-yl)methyl)amino)nicotinamide], for which, in assay [1] (Homo sapiens, Monocyte), the EC50 turned out to be 88 nM. The compound also had an IC50 in assay [2] of 3 nM.
For `CC(C)(O)[C@H](F)CNC(=O)c1cnc(-c2ccc3cc(C#N)cnn23)cc1NC[C@@H]1COCCN1` [Example 917, 6-(3-cyanopyrrolo[1,2-b]pyridazin-7-yl)-N-((R)-2-fluoro-3-hydroxy-3-methylbutyl)-4-((((R)-morpholin-3-yl)methyl)amino)nicotinamide] the same measures were 72 nM and 1 nM.
Take `COC(=O)N1CCOC[C@H]1CNc1cc(-c2ccc3cc(C#N)cnn23)ncc1C(=O)NC[C@@H](F)C(C)(C)O` [Example 918, (R)-methyl 3-(((2-(3-cyano-pyrrolo[1,2-b]pyridazin-7-yl)-5-(((R)-2-fluoro-3-hydroxy-3-methylbutyl)carbamoyl)pyridin-4-yl)amino)methyl)morpholine-4-carboxylate]: the EC50 in assay [1] (Homo sapiens, Monocyte) is 416 nM. In assay [2], half-maximal inhibition (IC50) was put at 31 nM.
For `COC(=O)N1CCOC[C@@H]1CNc1cc(-c2ccc3cc(C#N)cnn23)ncc1C(=O)NC[C@@H](F)C(C)(C)O` [Example 919, (S)-methyl 3-(((2-(3-cyano-pyrrolo[1,2-b]pyridazin-7-yl)-5-(((R)-2-fluoro-3-hydroxy-3-methylbutyl)carbamoyl)pyridin-4-yl)amino)methyl)morpholine-4-carboxylate], in that order: 707 nM and 37 nM.
On to `CC(C)(O)[C@H](F)CNC(=O)c1cnc(-c2ccc3cc(C#N)cnn23)cc1Nc1cnc(N2CC3CC(C2)O3)nc1` [Example 920, 4-((2-(6-oxa-3-aza-bicyclo[3.1.1]heptan-3-yl)pyrimidin-5-yl)amino)-6-(3-cyanopyrrolo[1,2-b]pyridazin-7-yl)-N-((R)-2-fluoro-3-hydroxy-3-methyl-butyl)nicotinamide], for which the EC50 in assay [1] (Homo sapiens, Monocyte) amounted to 8 nM. Also, in assay [2], the IC50 is under 1 nM.

The values above are taken from patent US10336762B2 (priority 2017, dated 2019).
